Calls of active or inactive are those of the source. Rule as the data show it: active = IC50 below about 20 µM; inactive = the rest.
Each compound was assayed on Gli-responsive luciferase reporter cells, SUFU pathway antagonism (assay: blockers of Gli reporter signaling – cell-based, luciferase luminescence, uHTS hits, dose response (AID 602464)).

Row | Compound | IC50
1 | CCOC(=O)C1CCCN(S(=O)(=O)c2ccc(S(=O)(=O)N(CC)CC)cc2)C1 (centres undefined) | 3.29 µM
2 | CC(C)(C)c1ccc(C(=O)NC(=S)Nc2ccc(N3CCOCC3)cc2)cc1 | 9.13 µM
3 | CN(C)CCn1c2ccccc2c2nc3ccc([N+](=O)[O-])cc3cc21 | 7.54 µM
4 | Cc1ccc2c(c1)c(C)cc[n+]2Cc1ccccc1 | 8.76 µM
5 | CCn1c(=O)cc(SCC(=O)N2CCN(C3CCCCC3)CC2)c2ccccc21 | 11.9 µM
6 | COCCNC(=O)CSCc1nc(-c2ccc(SC)cc2)oc1C | 8.46 µM
7 | CCCCCCC[N+](CC)(CC)CCCCc1ccc(Cl)cc1 | 5.6 µM
8 | Brc1ccc(-c2csc(N3CCCCCC3)n2)cc1 | 1.02 µM
9 | COc1ccc(NS(=O)(=O)c2cccc(NC(=O)c3ccc(S(=O)(=O)N4CCCCCC4)cc3)c2)cc1 | 7.51 µM
10 | CC[N+]1=C(C)C(C)(C)c2cc(C)ccc21 | 2.06 µM
11 | O=C(C[C@H]1C/C=C\C[C@@H](NC(=O)OCC2c3ccccc3-c3ccccc32)C(=O)O[C@@H](c2ccccc2)CNC1=O)N[C@H](CO)Cc1ccccc1 | 7.67 µM
12 | Cc1ccc(S(=O)(=O)NCCC2=CCCCC2)cc1C(N)=O | 8.71 µM
13 | CN(CCOc1ccc(Cl)cc1)C(=O)c1cccc(S(=O)(=O)N2CCN(c3ccc(F)cc3)CC2)c1 | 5.59 µM
14 | COc1ccc(CNCC(O)COc2cccc3c2OC(C)(C)C3)cc1 (centres undefined) | 5.99 µM
15 | CCOc1ccc(-n2c(-c3ccc(Cl)cc3)c[n+]3c2SCC3)cc1 | 3.49 µM
16 | CCCCNc1c(-c2ccc(OC)c(Sc3ccc(OC)cc3)c2)nc2ccccn12 | 6.31 µM
17 | Cc1cc(NC(=O)CSc2nc3c([nH]c4ccccc43)c(=O)n2-c2ccccc2F)no1 | 13.8 µM
18 | CCc1nc(N)nc(N)c1-c1ccc(N(C)Cc2ccccc2)c([N+](=O)[O-])c1 | 1.57 µM
19 | Clc1ccc(-c2c[n+](Cc3ccc(Cl)cc3Cl)c3n2CCCCC3)cc1 | 5.31 µM
20 | CCOC(=O)c1c(NC(=O)C(=O)N/N=C/c2ccccc2O)sc2c1CCCCC2 | 4.39 µM
21 | NC(=O)c1c(-c2ccc(Cl)cc2Cl)csc1NC(=O)Cc1ccccc1 | 7.97 µM
22 | CCn1c(C)nc2cc(-c3nnc(-c4c(-c5ccccc5)noc4C)o3)ccc21 | 7.36 µM
23 | Clc1ccc(-n2cc(-c3ccc(Br)cc3)[n+]3c2CCCCC3)cc1 | 7.04 µM
24 | Cc1nc2ccccc2c2oc(C(=O)N3CCN(C4CCCCC4)CC3)cc12 | 18.7 µM
25 | C[C@@H]1COC(=O)[C@H](NC(=O)OCC2c3ccccc3-c3ccccc32)C/C=C\C[C@@H](CC(=O)N[C@@H](CO)Cc2ccccc2)C(=O)N1 | 7.8 µM
26 | CCOc1ccc(-c2nc(CSCC(=O)NCC3CCCO3)c(C)o2)cc1 (centres undefined) | 1.47 µM

Row | Compound | IC50
27 | CN(Cc1ccc(OC(F)F)cc1)C(=O)c1cccc(S(=O)(=O)N2CCN(Cc3ccccc3)CC2)c1 | 6.92 µM
28 | O=C(NCCc1cccc(Cl)c1)c1ccc(OC2CCN(Cc3ccccn3)CC2)cc1 | 7.72 µM
29 | CN1/C(=C\C=Nc2ccccc2)C(C)(C)c2ccccc21 | 6 µM
30 | CCn1c(/C=C/Nc2ccccc2)[n+](CC)c2cc(Cl)c(Cl)cc21 | 7.87 µM
31 | COc1ccc(CC(=O)Nc2cccc(S(=O)(=O)N3CCCCCC3)c2)cc1OC | 7.98 µM
32 | Cc1ccc2c(c1)S/C(=C/c1ccc[n+](C)c1)N2CCO | 15.2 µM
33 | Cc1ccsc1CNc1ncnc2ccc(-c3c(C)noc3C)cc12 | 4.5 µM
34 | Brc1ccc(-c2c[n+]3c(n2-c2ccccc2)SCC3)cc1 | 6.98 µM
35 | CCOc1ccc(NC(=S)NNc2ccnc3cc(Cl)ccc23)cc1 | 5.36 µM
36 | CCN(CC)C(=O)c1ccc(S(=O)(=O)N2CCC(c3nc4ccccc4s3)CC2)cc1 | 8.85 µM
37 | O=C(N[C@@H]1C/C=C\C[C@@H](CC(=O)N(CCO)Cc2ccccc2)C(=O)NC[C@H](c2ccccc2)OC1=O)OCC1c2ccccc2-c2ccccc21 | 8.39 µM
38 | CC(=O)c1ccc(N2CCN(c3ccc(C(F)(F)F)cn3)CC2)cc1 | 8.99 µM
39 | Cc1nn(C)c(C(=O)NCc2ccc(Cl)cc2)c1Cl | 8.1 µM
40 | COc1nnc(-c2ccc(N3CCCCC3)c(N)c2)c2ccccc12 | 9.11 µM
41 | O=C(Cn1c(-c2ccccc2)c[n+]2ccsc12)c1ccc(Br)cc1 | > 20 µM (inactive)
42 | C[C@@H]1COC(=O)[C@@H](NC(=O)OCC2c3ccccc3-c3ccccc32)C/C=C\C[C@@H](CC(=O)N(CCO)Cc2ccccc2)C(=O)N1 | > 20 µM (inactive)
43 | N=c1c2c(n(Cc3ccc(F)cc3)c3c1CCC3)CCCC2 | 3.82 µM
44 | CC1Sc2n(c3ccccc3[n+]2C)N=C1c1ccccc1 (centres undefined) | 4.71 µM
45 | Cn1c(=O)c2c(nc(NCc3ccco3)n2Cc2ccc(Cl)cc2Cl)n(C)c1=O | 0.647 µM
46 | O=C(Cn1cc(C(=O)C2CC2)c2ccccc21)Nc1ccccc1Cl | 11.2 µM
47 | Cc1cc(Br)c(S(=O)(=O)NCc2ccncc2)cc1C | 8.04 µM
48 | O=C(N/N=C/c1cc2ccccc2nc1Cl)[C@H]1C[C@@H]1c1ccccc1 | 16.4 µM
49 | CCc1cc(C(=O)NC2CCCN(Cc3ccccc3F)C2)n(C)n1 (centres undefined) | 13.1 µM
50 | CN1/C(=C\C(=O)COC(=O)CNC(=O)c2ccc3ccccc3c2)C(C)(C)c2ccccc21 | 9.73 µM
51 | CCCCn1c(SCc2c(C)noc2C)nc2cc(S(N)(=O)=O)ccc21 | 4.21 µM
52 | Cc1ccc(S(=O)(=O)N2CCN(C(=O)C3CCN(c4ncnc5sc(C)c(C)c45)CC3)CC2)c(C)c1 | 7.57 µM

Row | Compound | IC50
53 | O=C(c1cnc(N2CCN(c3ccccn3)CC2)c2ccccc12)N1CCN(c2cccc(Cl)c2)CC1 | 11.4 µM
54 | O=C(Nc1cccc(C(F)(F)F)c1)C1CCN(S(=O)(=O)c2ccc(N3CCCC3=O)cc2)CC1 | 5.45 µM
55 | O=C(Nc1ccc(C(F)(F)F)cc1)C1CCN(S(=O)(=O)c2ccc(N3CCCC3=O)cc2)CC1 | 3.22 µM
56 | COc1ccccc1C(=O)NC(=S)/C=C1/N(C)c2ccccc2C1(C)C | 8.55 µM
57 | CC(C)CCOC(=O)C[N+](C)(C)CCOC1CC2CCC1(C)C2(C)C (centres undefined) | 5.18 µM
58 | O=C(C[C@@H]1C/C=C\C[C@@H](NC(=O)OCC2c3ccccc3-c3ccccc32)C(=O)OC[C@@H](Cc2ccccc2)NC1=O)NCCO | 10 µM
59 | Clc1ccc(-c2cn(-c3ccccc3)c3[n+]2CCS3)cc1 | 16.9 µM
60 | Cc1nn(-c2ccc(NC(=O)c3ccncc3)cc2)c(C)c1Cl | 9.25 µM
61 | CCCCCCCOc1ccc(OC(=O)c2cccnc2)cc1 | 1.06 µM
62 | Cc1ccc(NC(=O)/C=C/c2ccco2)cc1S(=O)(=O)N1CCCCCC1 | 2.12 µM
63 | NC(=O)c1ccccc1OCC(=O)N1CCC(Cc2ccccc2)CC1 | 5.61 µM
64 | O=C(N[C@H]1C/C=C\C[C@@H](CC(=O)N(CCO)Cc2ccccc2)C(=O)N[C@H](Cc2c[nH]c3ccccc23)COC1=O)OCC1c2ccccc2-c2ccccc21 | 10.4 µM
65 | CCn1c(/C=C/Nc2ccccc2)[n+](CC)c2ccc(Cl)cc21 | 18.1 µM
66 | Fc1ccc(-n2nnnc2-c2cnc(-c3cccs3)nc2C(F)(F)F)cc1 | 6.43 µM
67 | COc1ccc(CN(C)C(=O)c2cccc(NC(=O)CC3SC(N4CCCCC4)=NC3=O)c2)c(OC)c1 (centres undefined) | 13 µM
68 | Cc1cccnc1CN1CCN(C(=O)c2cc(COc3ccc4ncccc4c3)on2)CC1 | 5.18 µM
69 | COc1ccccc1NS(=O)(=O)c1cccc(C(=O)NC2CCN(Cc3ccccc3)CC2)c1 | > 20 µM (inactive)
70 | COc1ccc(C2=[N+](C)CCn3cccc32)c(OC)c1 | 10.2 µM
71 | CCC(CC)CN1C(N(C)C)=NC[C@@H]1CC(C)C | 8.27 µM
72 | CCCCCn1c(=N)n(CC(O)COc2ccccc2OC)c2ccccc21 (centres undefined) | 8.43 µM
73 | C[n+]1c2n(c3ccccc31)N=C(c1ccc(-c3ccccc3)cc1)CS2 | 1.32 µM
74 | O=C(c1ccc(Cl)cc1)N1CCN(c2ccnc3cc(Cl)ccc23)CC1 | 3.01 µM
75 | CC(Sc1nc2ccccc2c(=O)n1C)C(=O)NC1CCCCC1C (centres undefined) | 11.5 µM
76 | CCN(CC)S(=O)(=O)c1ccc(S(=O)(=O)N2CCCC(C(=O)NC3CC3)C2)cc1 (centres undefined) | 7.52 µM
77 | CCCOc1ccccc1N/C(=N/c1nc(C)cc(C)n1)NC(=O)COc1ccc(OC)cc1 | 7.7 µM
78 | C=CCOc1nc2c(c(=O)n(C)c(=O)n2C)n1Cc1ccc(Cl)cc1 | 7.97 µM

Row | Compound | IC50
79 | Cc1nc2ccccc2n1CC(=O)NC(C)C1CC2CCC1C2 (centres undefined) | 7.93 µM
80 | O=C(C[C@@H]1C/C=C\C[C@H](NC(=O)OCC2c3ccccc3-c3ccccc32)C(=O)OC[C@H]2CCCN2C1=O)N[C@H](CO)Cc1ccccc1 | 6.71 µM
81 | CCCCCCn1c(=O)c(C(=O)Nc2cnccn2)c(O)c2ccccc21 | 9.19 µM
82 | CCOP(=O)(CCP(=O)(OCC)OCC)OCC.C[CH2][Sn]([Cl])([Cl])[CH2]C | 6.24 µM
83 | CCCC(C)C(=O)Nc1nc(C)c(-c2csc(Nc3ccc(Cl)cc3)n2)s1 (centres undefined) | 6.48 µM
84 | CCNc1nc(CN2CCCCC2)nc2scc(-c3ccccc3)c12 | 5.95 µM
85 | CCCn1c(SCC(=O)Nc2nc(-c3ccc(OC)cc3)cs2)nc2c1c(=O)n(C)c(=O)n2C | > 20 µM (inactive)
86 | CCCN(CCC)CCNC(=O)c1cc2c(=O)n(C)c3ccccc3c2n1C | > 20 µM (inactive)
87 | FC(F)Oc1ccc(-c2c[n+]3c(n2-c2ccccc2)CCCCC3)cc1 | 7.36 µM
88 | CC(=O)Nc1cccc(OCC(=O)/C=C2\N(C)c3ccccc3C2(C)C)c1 | 4.73 µM
89 | COc1ccc(NS(=O)(=O)c2ccc(N3CCOCC3)c(N)c2)cc1 | 5.16 µM
90 | Cc1ccc(O)c(NC(=O)COc2cc(C)ccc2C)c1 | 3.34 µM
91 | CCOC(=O)N1CCN(C(=O)c2ccc(CSc3ccc(Cl)cc3)cc2)CC1 | 10.8 µM
92 | CCOC(=O)N1CCN(C(=O)c2cc(COc3ccc4ncccc4c3)on2)CC1 | 6.71 µM
93 | Cc1ccc(OCCN2CCN(c3ncnc4sc(C)c(C)c34)CC2)cc1 | 2.9 µM
94 | Cc1csc2ncnc(NCCc3ccccn3)c12 | 7.09 µM
95 | CC(C)(C)C1CCC(OC(=O)C[N+]2(C)CCCCC2)CC1 (centres undefined) | > 20 µM (inactive)
96 | CCOc1ccc(-n2c(O)c(/C=N/Nc3nc(C)cc(C)n3)c3ccccc3c2=O)cc1 | 7.13 µM
97 | c1ccc2c(c1)OCC(CNc1ncnc3sccc13)O2 (centres undefined) | 0.887 µM
98 | CCCCOc1ccc(N2C(N)=NC(N)=NC23CCCCC3)cc1 | 17.1 µM
99 | CC(C)(C)c1ccc(CN2C3=NCCCN3c3ccccc32)cc1 | 3.83 µM
100 | CC[N+](CC)(CC#Cc1ccccc1)CC#Cc1ccccc1 | 4.37 µM
101 | O=C(c1cc2sccc2n1Cc1ccc(F)cc1)N1CCN(c2nc3ccccc3s2)CC1 | 4.32 µM
102 | c1ccc(-c2c[n+]3c(n2-c2ccccc2)CCC3)cc1 | > 20 µM (inactive)
103 | O=C(/C=C/c1ccco1)Nc1ccc(-c2nc3ccccc3[nH]2)cc1 | 1.99 µM
104 | Cc1ccc(C2=C(CC(=O)O)C(=O)CC2)cc1 | > 20 µM (inactive)

Reference: PubChem BioAssay AID602464 (Sanford-Burnham Center for Chemical Genomics, 2012)
